In brackets after ≈: the same amount, converted by molar mass. Where two headings read alike, the source gives them in different places.
Tests used:
Protein kinase A = biological target: T1, Protein kinase A (Bos taurus, UniProt P00517); experiment: biochemical; details: crude enzyme partially purified from the calf heart, histone type IIS, c-AMP
T1 construct: a crude enzyme (partially purified from the calf heart by the method of Kuo et al.); from tissue; host or cells: calf heart
Protocol: (2) Protein kinase A inhibition assay:
Then, the same procedure as the above-described protein kinase C inhibition assay is carried out to calculate IC50.

CoLo 320DM cells = experiment: CoLo 320DM cell growth inhibition assay; format: cell-based; details: Homo sapiens, read-out: IC50 CoLo 320DM
Protocol: (2) CoLo 320DM cell growth inhibition assay:
Then, the same procedure as (1) is followed and the counting of cells is carried out with a microcell counter.

HeLa S3 cells = experiment: HeLa S3 cell growth inhibition assay; format: cell-based; details: for IC50: Homo sapiens, HeLa S3, 72 h, read-out: IC50 HeLa S3
Protocol: (1) HeLa S3 cell growth inhibition assay:
A suspension of HeLa S3 cells (3 x 10^4 cells/ml) in MEM containing 10% fetal serum and 2 mM glutamine is distributed in 0.1 ml portions into the wells of a 96-well microtiter plate and incubated overnight in a C02 incubator at 37°C. Then, 0.05 ml portions of an appropriately diluted solution of the test compound are added. The cells are further cultured in the C02 incubator and the culture supernatant is discarded. After washing with PBS (-) once, 0.1 ml portions of fresh medium are added to the wells and the incubation is continued in the C02 incubator at 37°C for 72 hours. After the culture supernatant is discarded, 0.1 ml portions of culture medium containing 0.02% neutral red are added to the respective wells and the microtiter plate is incubated in the C02 incubator at 37°C for 1 hour to stain the cells. After removal of the culture supernatant, the plate is washed with physiological saline once and the dye is extracted with 0.001 N HC1/30% ethanol. Then, using a microplate reader, the absorbances at 550 nm are measured.

[1] = read-out: IC50 Protein kinase A (converted)
[2] = 50% cell growth inhibition concentration, cell counting with a microcell counter
[3] = 50% growth inhibition concentration, neutral red staining, absorbance at 550 nm, 72 hours incubation after washing

Row | SMILES | IC50 (Protein kinase A; [1]) | IC50 (HeLa S3 cells; [3]) | further results
1 | CNC1CC2OC(C)(C1OC)n1c3ccccc3c3c4c(c5c6ccccc6n2c5c31)C(=O)NC4=O (stereo not drawn) [Compound 15] | – | – | IC50 (Protein kinase A; IC50 Protein kinase A): 27.1 nM
2 | COC1C(N(C)C=O)CC2OC1(C)n1c3ccccc3c3c4c(c5c6ccccc6n2c5c31)C(=O)NC4 (stereo not drawn) [Compound 3] | 20200 nM | – | –
3 | CNC1CC2OC(C)(C1OC)n1c3ccccc3c3c4c(c5c6ccccc6n2c5c31)C(=O)N(C)C4=O (stereo not drawn) [Compound 14] | – | – | IC50 (CoLo 320DM cells): > 1 µg/mL; IC50 (HeLa S3 cells): 0.78 µg/mL (≈ 1.58 µM)
4 | COC1C(N(C)C(=O)CN)CC2OC1(C)n1c3ccccc3c3c4c(c5c6ccccc6n2c5c31)C(=O)NC4 (stereo not drawn) [Compound 10] | – | 0.051 µg/mL (≈ 0.0974 µM) | IC50 (CoLo 320DM cells; [2]): 0.55 µg/mL (≈ 1.05 µM)
5 | CNC1CC2OC(C)(C1OC)n1c3ccccc3c3c4c(c5c6ccccc6n2c5c31)C(=O)NC4OC (single isomer, unassigned) [Compound 17] | 242 nM | 0.16 µg/mL (≈ 0.322 µM) | –
6 | CNC1CC2OC(C)(C1OC)n1c3ccccc3c3c4c(c5c6ccccc6n2c5c31)C(=O)N(C=O)C4 (stereo not drawn) [Compound 4] | – | 0.18 µg/mL (≈ 0.364 µM) | IC50 (CoLo 320DM cells; [2]): 0.19 µg/mL (≈ 0.384 µM)
7 | CCCCOC1NC(=O)c2c1c1c3ccccc3n3c1c1c2c2ccccc2n1C1CC(NC)C(OC)C3(C)O1 (stereo not drawn) [Compound 19] | – | – | IC50 (HeLa S3 cells): 0.32 µg/mL (≈ 0.594 µM)
8 | CNC1CC2OC(C)(C1OC)n1c3ccccc3c3c4c(c5c6ccccc6n2c5c31)C(=O)NC4OC(C)C (stereo not drawn) [Compound 18] | – | 0.29 µg/mL (≈ 0.553 µM) | –
9 | CNC1CC2OC(C)(C1OC)n1c3ccccc3c3c4c(c5c6ccccc6n2c5c31)C(=O)NC4OC (stereo not drawn) [Compound 11] | 322 nM | 0.17 µg/mL (≈ 0.342 µM) | IC50 (CoLo 320DM cells; [2]): 0.14 µg/mL (≈ 0.282 µM)
10 | COC1C(N(C)C(C)=O)CC2OC1(C)n1c3ccccc3c3c4c(c5c6ccccc6n2c5c31)C(=O)NC4 (stereo not drawn) | 59 nM | – | –
11 | CN[C@@H]1C[C@H]2O[C@@](C)([C@@H]1OC)n1c3ccccc3c3c4c(c5c6ccccc6n2c5c31)C(=O)N[C@@H]4O [UCN-01, reference compound] | – | – | IC50 (Protein kinase A; IC50 Protein kinase A): 41.4 nM; IC50 (HeLa S3 cells): 0.17 µg/mL (≈ 0.352 µM)
12 | CNC1CC2OC(C)(C1OC)n1c3ccccc3c3c4c(c5c6ccccc6n2c5c31)C(=O)NC4OC (single isomer, unassigned) [Compound 16] | 383 nM | – | IC50 HeLa S3 (HeLa S3 cells; [3]): 0.20 µg/mL (≈ 0.403 µM)
13 | CNC1CC2OC(C)(C1OC)n1c3ccccc3c3c4c(c5c6ccccc6n2c5c31)C(=O)N(N)C4=O (stereo not drawn) [Compound 5] | – | – | IC50 (CoLo 320DM cells): 0.59 µg/mL (≈ 1.19 µM); IC50 (HeLa S3 cells): 0.75 µg/mL (≈ 1.51 µM)
14 | CCOC1NC(=O)c2c1c1c3ccccc3n3c1c1c2c2ccccc2n1C1CC(NC)C(OC)C3(C)O1 (stereo not drawn) [Compound 20] | – | 0.29 µg/mL (≈ 0.568 µM) | –
15 | COC1C(N(C)C(C)=O)CC2OC1(C)n1c3ccccc3c3c4c(c5c6ccccc6n2c5c31)C(=O)NC4=O (stereo not drawn) [Compound 13] | 68.9 nM | – | –

— patent EP0383919A1, “STAUROSPORIN DERIVATIVES” (KYOWA HAKKO KOGYO CO., LTD., priority 1988, dated 1989)
